# Reference: patent US8642559B2, “C-terminal domain truncation of mGluR1α by calpain and uses thereof” (priority 2006, dated 2014)
# Where a SMILES comes first, the peptide text is derived from it. The star is where a group is joined. Cbz = O=C(OCc1ccccc1)*
# Assays:
# mGluR1α [1] = assay: Glutamate/NMDA-induced C-terminal truncation of mGluR1α in cultured cortical neurons (immunoblot); format: cell-based; conditions: for block of glutamate-induced truncation of mGluR1α: glutamate 100 μM, antagonist 100 μM
# From the text: Total cell lysates were separated by SDS-PAGE and probed with an antibody against the carboxyl terminus (residue 1142-1160) of mGluR1α. […] Total cell lysates were probed with an anti-myc antibody. […] Total cell lysates were probed with antibodies against mGluR5, G1uR2/3 and VGluT1 respectively.
# Total cell lysate was collected immediately after treatment and subjected to SDS-PAGE and immunoblotting with an antibody against the carboxyl terminus (residues 1142-1160) of mGluR1α (FIG. 2A). […] Neurons were transfected with a calcium phosphate precipitation method modified for high transfection rate (Jian et al., Gene Ther 11:1301-1311, 2004).
# Cortical neurons were treated with NMDA at the indicated concentrations for 1 h or treated with NMDA (10 μM) for the indicated times. Total cell lysates were separated by SDS-PAGE and probed with antibodies against mGluR1α1142-1160, Results were normalized over control values and are means±s.e.m. of 4 experiments.
# To determine whether activation of mGluR1α itself was required for the truncation, two distinct mGluR1α antagonists were applied.
# To further characterize NMDA-induced mGluR1α truncation, the concentration- and time-dependencies of the effects of NMDA were studied. Cortical neurons were first incubated with different concentrations of NMDA for a fixed period of time (1 hour) (FIG. 3F). […] In a following experiment, cortical neurons were incubated with 10 μM NMDA for different durations ranging from 1 to 60 min (FIG. 3G).
# Cortical neurons were treated with NMDA (10 μM, 1 h). Total cell lysates were separated by SDS-PAGE and probed with antibodies against spectrin and mGluR1α1142-1160, respectively. Only the degradation bands of spectrin (spectrin DB, at ˜145 KD) are shown. […] In FIG. 4C, purified myc-mGluR1α was digested with μ-calpain at the indicated concentrations (U/ml) for 30 min. The digested material was processed for SDS-PAGE and subjected to silver staining or immunoblots with anti-myc or anti-mGluR1α1142-1160 antibodies. […] The 1st lane was the myc-mGluR1α immunoprecipitated from 293 cells; the 2nd and 3rd lanes were immunoprecipitated myc-mGluR1α digested with indicated concentration of calpain. […] FIG. 4F is the alignment of mGluR1 (902-941) and mGluR5 (889-927) surrounding the calpain cleavage site.
# In this set of experiments, we determined which protease(s) mediated NMDA-induced truncation of mGluR1α. […] Cortical neurons were pretreated with a calpain inhibitor, the cell-permeable calpain-inhibitor III, or the caspase inhibitor cpm-VAD-CHO for 2 hours and then incubated in the absence or presence of 100 µM NMDA for 1 hour. […] To further confirm calpain activation by NMDA under our experimental conditions, we determined the levels of the calpain-specific spectrin degradation fragments.
# cortical neurons = assay: NMDA/DHPG neuronal toxicity in cortical neurons (EthD-1/Calcein AM live/dead); format: cell-based; conditions: for cell death: 24 hours after
# From the text: In FIGS. 8a and b, cortical neurons were co-transfected with green fluorescent protein (GFP) and vector DNA, myc-mGluR1α or myc-mGluR1α936Δ, respectively. […] Twelve hours later, neurons were stained with EthD-1 to label dead cells. Arrowheads in FIG. 8a indicate EthD-1 positive GFP-expressing neurons. * p<0.05. FIGS. 8c and d are representative photos and bar graphs showing differential roles of endogenous mGluR1 in neuronal toxicity before and after NMDA-induced truncation. Cortical neurons were treated as indicated and were stained with EthD-1 (for dead cells) and calcein AM (for live cells) 24 hours later. * p<0.001.
# We then tested whether calpain-mediated truncation of endogenous mGluR1α also alters its roles in excitotoxicity. We used NMDA to elicit mGluR1α truncation and evaluated the roles of mGluR1 in neuronal toxicity by applying DHPG before and after truncation. Fourteen DIV cortical neurons cultured on 18×18 mm coverslips were divided into 6 groups, which received the following treatments, respectively: 1) “Control”: vehicle; 2) “NMDA”: 100 μM NMDA for 1 hour; 3) “DHPG before NMDA”: DHPG, 100 μM, for 1 hour, followed by 100 μM NMDA for 1 hour; 4) “DHPG after NMDA”: NMDA, 100 μM, for 1 hour, followed by 100 μM DHPG for 1 hour; 5) “DHPG+LY before NMDA”: 100 μM DHPG was co-applied with 100 μM LY367385 for 1 hour and followed by 100 μM NMDA for 1 hour; 6) “DHPG+LY after NMDA”: NMDA 100 μM for 1 hour, followed by 100 μM DHPG co-applied with 100 μM LY367385. Twenty-four hours after treatment, all neurons were stained for 20 minutes with 0.5 μM EthD-1 to label dead cells and 2 μM Calcein AM to label live cells. After three washes with culture medium, coverslips were mounted and one microscopy photo was immediately taken from the center area of each coverslip. EthD-1 and Calcein AM positive cells on each photo were then counted. The percentage of cell death was calculated as the number of EthD-1 positive cell/(number of EthD-1 positive cell+number of Calcein AM positive cell)*100%.
# Phospho Akt (Ser473) = assay: Akt phosphorylation (Ser473) in cortical neurons (Western blot); format: cell-based; conditions: DHPG 50 μM; for phosphorylated Akt levels: 10 min
# Procedure: (§1) Representative current traces recorded from HEK293 cells transfected with either myc-mGluR1α (left panel) or myc-mGluR1α936Δ (right panel) and GIRK1, GIRK2 (top) or TRPC1 (bottom). DHPG (100 μM in extracellular solution) was applied using a fast perfusion system for the duration indicated by the scale bars. Each trace is the average of 5 continuous sweeps. The bar graphs represent the means±S.E.M. of DHPG-induced current amplitude recorded in cells transfected with myc-mGluR1α or myc-mGluR1α936Δplus GIRK1, GIRK2 (top right) or TRPC1 (bottom right) (n=3-7). In FIG. 6B, cortical neurons were pre-treated with NMDA (50 1μM, 1 h). Two hours after washing NMDA, neurons were treated with the mGluR1 agonist DHPG (50 μM) for 10 min in the absence or presence of LY367385. Total cell lysates were collected and probed with anti-Phospho Akt (Ser473) antibody. Without pretreatment with NMDA, DHPG increased the levels of Phospho-Akt (* p<0.05), an effect blocked by LY367385.
# As reported in previous studies, mGluR1 activation can stimulate the PI3K-Akt signaling pathway through the mGluRI-Homer-PIEL-PI3K signaling complex. Since the Homer-binding domain of mGluR1α is located in the extreme C-terminus, which is removed after calpain-mediated truncation, it was interesting to determine whether this signaling mechanism remained functional. We first induced mGluR1α truncation by treating cortical neurons with 50 μM NMDA for 1 hour. Two hours after washing out NMDA, neurons were incubated with the mGluRI agonist DHPG (50 μM) for 10 min. Neurons were then lysed and levels of phosphorylated Akt were determined on Western blots. Consistent with a previous study, in cortical neurons that were not pre-treated with NMDA, DHPG induced an increase in phosphorylated Akt levels (p<0.05, n=4, Student's t-test for Control vs. DHPG), an effect which was blocked by the mGluR1 selective antagonist LY367385 (p<0.05, n=4, for DHPG+LY367385 vs. DHPG) (FIG. 6B). […] Thus, mGluR1α-PI3K-Akt signaling pathway was disrupted by calpain-mediated mGluR1α truncation.
# spectrin = assay: NMDA-induced calpain-specific spectrin degradation (145 kD fragment) in cortical neurons; format: cell-based; conditions: NMDA 10 μM, 1 h
# Procedure: In this set of experiments, we determined which protease(s) mediated NMDA-induced truncation of mGluR1α. […] Cortical neurons were pretreated with a calpain inhibitor, the cell-permeable calpain-inhibitor III, or the caspase inhibitor cpm-VAD-CHO for 2 hours and then incubated in the absence or presence of 100 M NMDA for 1 hour. […] To further confirm calpain activation by NMDA under our experimental conditions, we determined the levels of the calpain-specific spectrin degradation fragments.
# myc-mGluR1α [2] = target: T1, myc-mGluR1α (Rattus norvegicus, UniProt P23385); assay: DHPG-induced whole-cell currents in HEK293 cells transfected with myc-mGluR1α; format: cell-based; conditions: 100 μM DHPG
# T1 sequence (P23385 19-1199): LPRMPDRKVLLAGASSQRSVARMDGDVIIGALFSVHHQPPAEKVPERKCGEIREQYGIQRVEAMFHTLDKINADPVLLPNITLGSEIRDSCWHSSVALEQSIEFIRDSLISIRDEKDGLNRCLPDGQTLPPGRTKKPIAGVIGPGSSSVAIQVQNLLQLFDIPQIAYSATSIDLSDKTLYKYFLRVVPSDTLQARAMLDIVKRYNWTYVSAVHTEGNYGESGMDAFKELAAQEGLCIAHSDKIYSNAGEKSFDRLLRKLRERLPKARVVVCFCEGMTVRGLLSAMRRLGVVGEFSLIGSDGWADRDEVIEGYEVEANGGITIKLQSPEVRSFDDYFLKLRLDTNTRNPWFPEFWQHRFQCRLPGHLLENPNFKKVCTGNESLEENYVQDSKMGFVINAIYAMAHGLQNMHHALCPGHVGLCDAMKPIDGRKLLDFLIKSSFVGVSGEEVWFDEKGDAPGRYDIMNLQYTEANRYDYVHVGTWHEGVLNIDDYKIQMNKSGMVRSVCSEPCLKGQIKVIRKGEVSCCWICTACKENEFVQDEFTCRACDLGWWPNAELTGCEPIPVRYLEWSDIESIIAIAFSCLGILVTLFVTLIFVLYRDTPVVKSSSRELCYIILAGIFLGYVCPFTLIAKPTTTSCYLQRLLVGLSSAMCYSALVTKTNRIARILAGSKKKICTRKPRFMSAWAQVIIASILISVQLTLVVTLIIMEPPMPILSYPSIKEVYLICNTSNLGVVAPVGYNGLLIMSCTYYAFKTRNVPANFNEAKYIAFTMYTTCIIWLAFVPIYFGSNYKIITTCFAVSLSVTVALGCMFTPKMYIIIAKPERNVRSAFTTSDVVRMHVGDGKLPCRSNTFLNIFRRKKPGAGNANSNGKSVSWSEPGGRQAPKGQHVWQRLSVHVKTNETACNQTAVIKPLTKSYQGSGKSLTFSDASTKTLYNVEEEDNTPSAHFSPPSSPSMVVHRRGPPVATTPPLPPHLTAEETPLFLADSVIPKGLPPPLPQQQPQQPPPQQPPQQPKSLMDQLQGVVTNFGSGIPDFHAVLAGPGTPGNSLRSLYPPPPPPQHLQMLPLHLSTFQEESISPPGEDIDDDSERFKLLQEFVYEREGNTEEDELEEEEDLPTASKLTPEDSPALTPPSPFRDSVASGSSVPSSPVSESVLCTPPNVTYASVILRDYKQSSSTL
# Procedure: as §1, with “antibody.” for “antibody. Without pretreatment with NMDA, DHPG increased the levels of Phospho-Akt (* p<0.05), an effect blocked by LY367385.”
# (§2) Because activation of mGluR1α can also stimulate non-selective cation excitatory postsynaptic conductances (EPSCs), we therefore analyzed mGluR1α-dependent currents before and after calpain-mediated truncation. We transfected HEK293 cells with either myc-mGluR1α or myc-mGluR1α936Δ plus GIRK1, GIRK2 or TRPC1.
# myc-mGluR1α [3] = assay: DHPG-induced calcium transients in HEK293 cells transfected with myc-mGluR1α (calcium imaging); format: cell-based; conditions: 100 μM DHPG; untransfected cells
# From the text: (§3) In this set of experiments, HEK293 cells were co-transfected with DsRed (red fluorescent protein) and wild-type myc-mGluR1α or truncated myc-mGluR1α936Δ. The mGluRI agonist DHPG was used to induce mGluR1α-mediated calcium transients. In FIG. 5A, photos in the left show the expression of DsRed, labeling transfected cells; photos in the middle illustrate the fluorescent signal from the calcium indicator Oregon green 488 BAPTA-1 AM before and after DHPG application; photos in the right are obtained by subtracting “before DHPG” from “after DHPG”, thus representing DHPG-induced calcium transients.
# (§4) The main signaling mechanism activated by mGluR1α consists of PI hydrolysis through G-protein and phospholipase C, which eventually leads to calcium release from internal calcium stores. Therefore we first performed calcium imaging to determine whether mGluR1α remains functional following C-terminal truncation. Wild-type mGluR1 (myc-mGluR1α) or the truncated form (myc-mGluR1α936Δ) was cotransfected with DsRed into HEK293 cells. Forty-eight hours after transfection, cells were loaded with a calcium reporter, Oregon green 488 BAPTA-1 AM (0.63% in extracellular solution).
# myc-mGluR1α [4] = target: T1, myc-mGluR1α; assay: as above; format: cell-based; conditions: 100 μM DHPG; myc-mGluR1α-transfected HEK293 cells
# From the text: as §3, §4
# myc-mGluR1α936Δ = myc-mGluR1α936Δ (Rattus norvegicus, UniProt P23385); assay: DHPG-induced whole-cell currents in HEK293 cells transfected with myc-mGluR1α936Δ; format: cell-based; conditions: 100 μM DHPG
# Sequence of myc-mGluR1α936Δ (P23385 19-936 limits assumed, stated change not applied): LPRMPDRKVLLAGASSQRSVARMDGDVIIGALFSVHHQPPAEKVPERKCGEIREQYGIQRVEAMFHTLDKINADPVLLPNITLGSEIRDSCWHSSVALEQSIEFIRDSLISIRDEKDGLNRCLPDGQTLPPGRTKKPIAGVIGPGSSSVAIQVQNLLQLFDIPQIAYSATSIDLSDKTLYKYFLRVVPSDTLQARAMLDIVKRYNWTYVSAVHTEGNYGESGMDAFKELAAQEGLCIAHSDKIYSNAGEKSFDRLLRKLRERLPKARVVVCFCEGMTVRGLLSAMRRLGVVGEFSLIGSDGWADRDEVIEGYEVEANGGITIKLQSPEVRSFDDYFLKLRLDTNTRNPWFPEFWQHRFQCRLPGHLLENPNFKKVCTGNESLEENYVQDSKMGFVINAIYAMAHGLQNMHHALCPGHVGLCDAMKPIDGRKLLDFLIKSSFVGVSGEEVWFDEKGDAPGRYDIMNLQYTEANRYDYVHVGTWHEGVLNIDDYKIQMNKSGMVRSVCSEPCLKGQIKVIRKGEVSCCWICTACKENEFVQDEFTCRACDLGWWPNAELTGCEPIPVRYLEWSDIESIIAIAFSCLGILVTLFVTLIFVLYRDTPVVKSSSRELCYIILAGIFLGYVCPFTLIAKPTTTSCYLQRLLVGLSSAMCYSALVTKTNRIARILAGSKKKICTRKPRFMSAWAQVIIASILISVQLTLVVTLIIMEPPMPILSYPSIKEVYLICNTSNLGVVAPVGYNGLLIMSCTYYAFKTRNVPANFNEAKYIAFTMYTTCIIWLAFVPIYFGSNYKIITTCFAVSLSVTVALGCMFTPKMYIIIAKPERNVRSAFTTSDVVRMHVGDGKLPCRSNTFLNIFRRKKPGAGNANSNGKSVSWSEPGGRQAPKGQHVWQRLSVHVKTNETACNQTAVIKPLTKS
# Procedure: as §1, with “antibody.” for “antibody. Without pretreatment with NMDA, DHPG increased the levels of Phospho-Akt (* p<0.05), an effect blocked by LY367385.”
# as §2
# mGluR1α [5] = assay: In vivo truncation of mGluR1α in hippocampus after kainic acid injection; conditions: kainic acid 30 mg/kg s.c., mice
# Procedure: (§5) The tat-peptide was injected i.p. 90 min before kainic acid injection. Note that the peptide had no effect on seizure intensity (bottom left).
# The objective of this set of experiments was to verify that the feedback mechanism of the present invention could take place in vivo and participate in excitotoxicity. We used the kainic acid model of excitotoxicity, as this model has been widely used to study the mechanisms underlying in vivo excitotoxicity (Wang et al. Mol Neurobiol 31:3-16, 2005). Mice were injected with kainic acid and sacrificed at different times after injection. Levels of mGluR1α were determined in hippocampus with both Western blots and immunohistochemistry (FIG. 10).
# hippocampal neurons = assay: Kainic acid-induced neuronal damage (silver staining) and seizures in mice; format: in vivo; conditions: kainic acid 30 mg/kg s.c., mice, 7 days, silver staining
# Procedure: as §5
# They were sacrificed after 7 days and brains processed for silver staining, a marker of cell damage. Note the heavy labeling of the pyramidal cell layer in the KA alone group.
# The effect of the tat-mGluR1 peptide on kainic acid-induced neuronal damage was also evaluated.
# [6] = 100 μM LY367385 co-applied with 100 μM DHPG
smiles,measurement,setting,value
Cc1cc(C(=O)O)ccc1[C@H](N)C(=O)O [LY367385],block of glutamate-induced truncation of mGluR1α,mGluR1α [1]; 1 h,do not block
same,block of the neuroprotective effect of DHPG before NMDA,cortical neurons; [6],completely blocked
same,block of the neurotoxic effect of DHPG after NMDA,cortical neurons; [6],completely blocked
same,block of DHPG-induced increase in phosphorylated Akt,Phospho Akt (Ser473); 10 min in presence of LY367385,blocked
N[C@@H](CCCP(=O)(O)O)C(=O)O [APV],block of glutamate-induced truncation of mGluR1α,mGluR1α [1]; 1 h,completely blocked
CC(C(O)c1ccc(O)cc1)N1CCC(Cc2ccccc2)CC1 (centres unmarked) [ifenprodil],block of NMDA-induced truncation of mGluR1α,"mGluR1α [1]; NMDA 10 μM, 1 h, ifenprodil 10 μM",selectively blocked
same,block of NMDA-mediated spectrin degradation,spectrin; ifenprodil 10 μM,blocked
C[C@H](NC(c1cccc2[nH]c(=O)c(=O)[nH]c12)P(=O)(O)O)c1ccc(Br)cc1 (some centres unmarked) [NVP-AAM077],block of NMDA-induced truncation of mGluR1α,"mGluR1α [1]; NMDA 10 μM, 1 h, NVP-AAM077 0.4 μM",not
same,block of NMDA-mediated spectrin degradation,spectrin; NVP-AAM077 0.4 μM,not
N[C@H](C(=O)O)c1cc(O)cc(O)c1 [DHPG],average amplitude of DHPG-induced whole-cell current,"myc-mGluR1α [2]; myc-mGluR1α/GIRK1,2-transfected cells",−24.2±6.3 pA
same,mean amplitude of DHPG-induced whole-cell current,myc-mGluR1α [2]; myc-mGluR1α/TRPC1-transfected cells,−36.7±9.6 pA
same,change in fluorescent calcium signals,myc-mGluR1α [3],no change
same,"calcium transient, max. ΔF/F",myc-mGluR1α [4],30.6±4.2%
same,cell death,cortical neurons; DHPG 100 μM 1 hour after 100 μM NMDA 1 hour,54%
same,cell death,cortical neurons; DHPG 100 μM 1 hour before 100 μM NMDA 1 hour,29%
same,phosphorylated Akt levels,Phospho Akt (Ser473); 2 h after NMDA 50 μM 1 h pre-treatment,failed to increase
same,phosphorylated Akt levels,Phospho Akt (Ser473); neurons not pre-treated with NMDA,increase
same,mean amplitude of DHPG-induced whole-cell current,"myc-mGluR1α936Δ; myc-mGluR1α936Δ/GIRK1,2-transfected cells",−1.4±0.8 pA
same,mean amplitude of DHPG-induced whole-cell current,myc-mGluR1α936Δ; myc-mGluR1α936Δ/TRPC1-transfected cells,−9.7±6.8 pA
N#Cc1cc2[nH]c(=O)c(=O)[nH]c2cc1[N+](=O)[O-] [CNQX],block of glutamate-induced truncation of mGluR1α,mGluR1α [1]; 1 h,had no effect
CC(C)[C@H](NC(=O)OCc1ccccc1)C(=O)N[C@H](C=O)Cc1ccccc1 [calpain inhibitor III] (Cbz-Val-Phe-aldehyde),block of NMDA-induced truncation of mGluR1α,"mGluR1α [1]; inhibitor pretreatment 2 hours, then NMDA 100 μM 1 h, Calpi3 10 μM",significantly blocked
C=C(C)[C@H]1CN[C@H](C(=O)O)[C@H]1CC(=O)O [kainic acid],mGluR1 truncation in hippocampus following kainic acid injection,mGluR1α [5],rapidly truncated
same,neuronal damage in hippocampal pyramidal neurons,hippocampal neurons,marked damage
